Some results are limits rather than exact numbers.

Data set [1] has as its target CYP3A4 (Homo sapiens (Human), UniProt P08684). As to the kind of experiment: CYP450 inhibition at 10 μM, CYP3A4. In kind it is in vitro ADME. The settings on record: for inhibition at 10 µM: human, read-out: CYP 450 % INH @ 10 μM.
For data set [2], the target named is adenosine A2A receptor (Homo sapiens (Human), UniProt P29274). The data set can be described thus: Adenosine receptor activity assay (Table 1), A2A activity. The settings on record: read-out: Ave A2A cAMP IC50. In kind it is biochemical.
Chain of adenosine A2A receptor (P29274 whole entry): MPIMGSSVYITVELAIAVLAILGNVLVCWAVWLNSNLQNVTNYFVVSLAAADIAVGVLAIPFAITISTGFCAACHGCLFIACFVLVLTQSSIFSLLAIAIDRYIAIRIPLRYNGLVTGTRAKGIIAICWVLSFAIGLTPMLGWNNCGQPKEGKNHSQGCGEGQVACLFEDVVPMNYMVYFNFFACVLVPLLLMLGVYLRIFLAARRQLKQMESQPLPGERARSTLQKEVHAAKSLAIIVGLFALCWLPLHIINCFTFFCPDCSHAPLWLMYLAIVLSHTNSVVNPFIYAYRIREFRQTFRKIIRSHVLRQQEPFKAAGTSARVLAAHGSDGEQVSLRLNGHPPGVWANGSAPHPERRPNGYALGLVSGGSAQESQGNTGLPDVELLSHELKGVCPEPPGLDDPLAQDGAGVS
A short description of data set [3]: Liver microsome (LM) intrinsic clearance, human. In kind it is in vitro ADME.
The target of data set [4] is CYP2D6 (Homo sapiens (Human), UniProt P10635). As to the kind of experiment: CYP450 inhibition at 10 μM, CYP2D6. In kind it is in vitro ADME. The following applies: read-out: CYP 450 % INH @ 10 μM.
Chain of CYP2D6 (P10635 whole entry): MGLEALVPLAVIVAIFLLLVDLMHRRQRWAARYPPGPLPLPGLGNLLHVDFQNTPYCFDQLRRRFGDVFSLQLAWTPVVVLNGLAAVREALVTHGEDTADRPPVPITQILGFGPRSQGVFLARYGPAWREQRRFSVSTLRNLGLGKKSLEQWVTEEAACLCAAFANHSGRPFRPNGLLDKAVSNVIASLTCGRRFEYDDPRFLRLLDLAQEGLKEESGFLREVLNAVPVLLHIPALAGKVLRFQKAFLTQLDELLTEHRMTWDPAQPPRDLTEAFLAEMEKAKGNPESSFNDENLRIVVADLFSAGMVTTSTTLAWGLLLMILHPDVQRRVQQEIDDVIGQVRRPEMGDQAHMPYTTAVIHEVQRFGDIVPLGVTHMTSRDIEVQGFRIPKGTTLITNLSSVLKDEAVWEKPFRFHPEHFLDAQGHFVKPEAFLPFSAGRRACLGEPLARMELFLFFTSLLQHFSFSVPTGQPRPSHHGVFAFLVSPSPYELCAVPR
A short description of data set [5]: Liver microsome (LM) intrinsic clearance, rat. In kind it is in vitro ADME.
Data set [6] deals with adenosine A2B receptor (Homo sapiens (Human), UniProt P29275). As to the kind of experiment: Adenosine receptor activity assay (Table 1), A2B activity. It counts as biochemical. The following applies: for Ratio: A2A activity to A2B activity (A2A/A2B); for IC50: read-out: Ave A2B cAMP IC50.
Chain of adenosine A2B receptor (P29275 whole entry): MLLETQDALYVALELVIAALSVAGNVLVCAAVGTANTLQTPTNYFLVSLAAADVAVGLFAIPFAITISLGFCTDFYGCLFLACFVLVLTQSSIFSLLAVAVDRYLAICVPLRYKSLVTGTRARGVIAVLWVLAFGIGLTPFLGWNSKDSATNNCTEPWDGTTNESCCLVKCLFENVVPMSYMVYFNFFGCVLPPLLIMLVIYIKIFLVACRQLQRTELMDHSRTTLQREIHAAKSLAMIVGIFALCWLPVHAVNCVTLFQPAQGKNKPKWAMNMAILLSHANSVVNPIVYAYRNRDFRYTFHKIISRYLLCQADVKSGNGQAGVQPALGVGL
The nature of data set [7]: Hepatocyte (Hep) intrinsic clearance, human. The settings on record: hepatocytes. It counts as in vitro ADME.
Data set [8] in a line: Hepatocyte (Hep) intrinsic clearance, rat. It counts as in vitro ADME. The following applies: hepatocytes.
Data set [9] addresses adenosine A1 receptor (Homo sapiens (Human), UniProt P30542). As to the kind of experiment: A1 cAMP IC50 assay (Table 1). It counts as biochemical.
Data set [10] addresses adenosine A3 receptor (Homo sapiens (Human), UniProt P0DMS8). The data set can be described thus: A3 cAMP IC50 assay (Table 1). In kind it is biochemical.

Chain of adenosine A3 receptor (P0DMS8 whole entry): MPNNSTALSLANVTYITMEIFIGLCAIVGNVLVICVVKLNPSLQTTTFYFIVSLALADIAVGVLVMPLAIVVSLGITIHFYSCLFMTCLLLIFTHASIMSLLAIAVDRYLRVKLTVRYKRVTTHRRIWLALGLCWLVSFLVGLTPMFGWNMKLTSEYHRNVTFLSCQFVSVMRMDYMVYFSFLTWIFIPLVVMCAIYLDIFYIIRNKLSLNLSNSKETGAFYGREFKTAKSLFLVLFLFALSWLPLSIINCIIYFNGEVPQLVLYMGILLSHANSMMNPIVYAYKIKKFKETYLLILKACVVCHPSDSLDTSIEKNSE
Chain of adenosine A1 receptor (P30542 whole entry): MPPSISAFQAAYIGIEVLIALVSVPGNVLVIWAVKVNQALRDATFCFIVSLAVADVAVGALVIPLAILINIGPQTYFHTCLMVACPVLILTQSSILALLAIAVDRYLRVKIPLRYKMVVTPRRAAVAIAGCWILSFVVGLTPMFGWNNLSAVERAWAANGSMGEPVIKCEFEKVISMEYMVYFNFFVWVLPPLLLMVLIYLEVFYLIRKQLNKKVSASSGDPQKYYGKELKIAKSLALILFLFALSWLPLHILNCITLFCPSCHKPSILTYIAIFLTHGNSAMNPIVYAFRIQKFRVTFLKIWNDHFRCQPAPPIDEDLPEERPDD
Chain of CYP3A4 (P08684 whole entry): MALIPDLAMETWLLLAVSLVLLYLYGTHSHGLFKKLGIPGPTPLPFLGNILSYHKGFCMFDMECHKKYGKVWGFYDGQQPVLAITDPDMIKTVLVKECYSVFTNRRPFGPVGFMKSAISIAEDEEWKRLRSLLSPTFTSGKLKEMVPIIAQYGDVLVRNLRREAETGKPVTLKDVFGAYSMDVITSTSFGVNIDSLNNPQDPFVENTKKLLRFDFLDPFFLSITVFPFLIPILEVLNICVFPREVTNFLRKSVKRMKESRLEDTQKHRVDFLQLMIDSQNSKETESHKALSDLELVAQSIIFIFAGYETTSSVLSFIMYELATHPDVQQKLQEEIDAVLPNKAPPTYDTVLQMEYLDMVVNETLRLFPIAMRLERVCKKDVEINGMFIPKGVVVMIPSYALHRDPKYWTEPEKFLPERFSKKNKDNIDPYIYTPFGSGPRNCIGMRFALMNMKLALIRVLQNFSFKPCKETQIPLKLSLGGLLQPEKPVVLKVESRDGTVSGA

Consider `C[C@H](Nc1nc(C(=O)N2CC[C@H](F)C2)c2sccc2n1)c1cccnc1` [Example Z9, ((S)-3-Fluoropyrrolidin-1-yl)(2-(((S)-1-(pyridin-3-yl)ethyl)amino)thieno[3,2-d]pyrimidin-4-yl)methanone], for which the figures for the inhibition at 10 µM in [1] and in [4] were 71% and 20%, respectively. Moreover, the IC50 in data set [2] was in the range of 50 to 100 nM; in data set [6], 10 to 50 nM. Also, the “LM CLint” value in [3] was 15.83 μL/min/mg/protein; in data set [5] it was 28.41 μL/min/mg/protein. Further, the Ratio in data set [6] came out at 2.55. Further, the hepatocyte CLint turned out to be 11.4 µL/min/1e6 cells in data set [7] and 70.1 µL/min/1e6 cells in data set [8].
In the case of `O=C(c1nc(NCc2cncc(F)c2)nc2ccsc12)N1CCCC1` [Example Z21, (2-(((5-Fluoropyridin-3-yl)methyl)amino)thieno[3,2-d]pyrimidin-4-yl)(pyrrolidin-1-yl)methanone], the “CYP3A4 IC50” value in data set [1] was 12400 nM. Besides, the figures for the inhibition at 10 µM in data set [1] and in data set [4] were 45% and 4%, respectively. In addition, in [2], the half-maximal inhibitory concentration (IC50) is 100 to 500 nM. Further, the entries for the “LM CLint” value in data set [3] and in data set [5] were 43.24 μL/min/mg/protein and 89.01 μL/min/mg/protein, respectively. In addition, the hepatocyte CLint in data set [7] came out at 23.1 µL/min/1e6 cells; in data set [8], 71.2 µL/min/1e6 cells.
With `Cc1cncc(CNc2nc(C(=O)N3CCCC3)c3sccc3n2)c1` [Example Z50, (2-(((5-Methylpyridin-3-yl)methyl)amino)thieno[3,2-d]pyrimidin-4-yl)(pyrrolidin-1-yl)methanone], the inhibition at 10 µM was determined as 79% in data set [1] and 32% in data set [4]. Moreover, the IC50 in data set [2] was over 500 nM; in data set [6] it was 10 to 50 nM. For the same compound, the “LM CLint” value in [3] turned out to be 126.01 μL/min/mg/protein; in data set [5], 129.90 μL/min/mg/protein. The Ratio in data set [6] was 5.23. For the same compound, the hepatocyte CLint in data set [7] is 49 µL/min/1e6 cells; in data set [8], 149 µL/min/1e6 cells.
In the case of `C[C@H](Nc1nc(C(=O)N2CC[C@H](F)C2)c2sccc2n1)c1ccccn1` [Example Z53, ((S)-3-Fluoropyrrolidin-1-yl)(2-(((S)-1-(pyridin-2-yl)ethyl)amino)thieno[3,2-d]pyrimidin-4-yl)methanone], the inhibition at 10 µM in data set [1] amounted to 10%; in data set [4] it was 0%. Also, the results for the concentration for half-maximal inhibition (IC50) in data set [2] and in data set [6] were 50 to 100 nM and under 10 nM, respectively. Further, the “LM CLint” value in data set [3] came to 13.51 μL/min/mg/protein; in [5] it was 14.92 μL/min/mg/protein. The Ratio in data set [6] is given as 7.15. Besides, the hepatocyte CLint was determined as 10.9 µL/min/1e6 cells in data set [7] and 42.7 µL/min/1e6 cells in data set [8].
For `C[C@H](Nc1nc(C(=O)N2CCC(F)(F)C2)c2sccc2n1)c1ccccn1` [Example Z96, (S)-(3,3-Difluoropyrrolidin-1-yl)(2-((1-(pyridin-2-yl)ethyl)amino)thieno[3,2-d]pyrimidin-4-yl)methanone], the IC50 was over 500 nM in [9], 100 to 500 nM in [2], over 500 nM in data set [10] and 10 to 50 nM in data set [6]. Besides, the inhibition at 10 µM in data set [1] worked out at 0%. In addition, the Ratio in data set [6] was 5.59. Besides, the hepatocyte CLint in data set [7] came out at 16.8 µL/min/1e6 cells; in [8], 40.7 µL/min/1e6 cells.
For `O=C(c1nc(NCc2cncc(F)c2)nc2ccsc12)N1CC(F)(F)C1` [Example Z97, (3,3-Difluoroazetidin-1-yl)(2-(((5-fluoropyridin-3-yl)methyl)amino)thieno[3,2-d]pyrimidin-4-yl)methanone], the IC50 in data set [9] is over 500 nM; in data set [2], over 500 nM; in data set [10] it was over 500 nM; in data set [6], 10 to 50 nM. Also, the inhibition at 10 µM in data set [1] was 53.8%. In addition, in data set [6], the Ratio came out at 30.97. Further, the hepatocyte CLint worked out at 41.3 µL/min/1e6 cells in [7] and 61.4 µL/min/1e6 cells in data set [8].
`O=C(c1nc(NCc2cncc(F)c2)nc2ccsc12)N1CC[C@H](F)C1` [Example Z99, (S)-(2-(((5-Fluoropyridin-3-yl)methyl)amino)thieno[3,2-d]pyrimidin-4-yl)(3-fluoropyrrolidin-1-yl)methanone]: the concentration for half-maximal inhibition (IC50) in data set [9] was over 500 nM; in data set [2], over 500 nM; in [10], over 500 nM; in data set [6] it was 10 to 50 nM. Further, the inhibition at 10 µM in data set [1] was found to be 48.9%. The Ratio in data set [6] is listed as 37.02. Besides, the hepatocyte CLint stood at 21.1 µL/min/1e6 cells in data set [7] and 65.3 µL/min/1e6 cells in [8].
For `C[C@H](Nc1nc(C(=O)N2CC(O)C2)c2sccc2n1)c1ccccn1` [Example Z100, (S)-(3-Hydroxyazetidin-1-yl)(2-((1-(pyridin-2-yl)ethyl)amino)thieno[3,2-d]pyrimidin-4-yl)methanone], the IC50 in [9] is over 500 nM; in data set [2], 100 to 500 nM; in [10], over 500 nM; in [6] it was 10 to 50 nM. The inhibition at 10 µM in data set [1] was determined as 7.65%. Moreover, the Ratio in [6] amounted to 11.09. Moreover, the hepatocyte CLint came to 1.89 µL/min/1e6 cells in data set [7] and 22.2 µL/min/1e6 cells in data set [8].
In the case of `C[C@H](Nc1nc(C(=O)N2CCOC2)c2sccc2n1)c1ccccn1` [Example Z105, (S)-Oxazolidin-3-yl(2-((1-(pyridin-2-yl)ethyl)amino)thieno[3,2-d]pyrimidin-4-yl)methanone], the IC50 in [9] was over 500 nM; in data set [2], 100 to 500 nM; in data set [10], over 500 nM; in data set [6], under 10 nM. Besides, the inhibition at 10 µM in data set [1] is 1.91%. For the same compound, in data set [6], the Ratio is listed as 19.04. The figures for the intrinsic metabolic clearance (hepatocyte CLint) in data set [7] and in data set [8] were 58.9 µL/min/1e6 cells and 27.7 µL/min/1e6 cells, respectively.
In the case of `O=C(c1nc(NCc2cncc(F)c2)nc2ccsc12)N1CC(O)C1` [Example Z109, (2-(((5-Fluoropyridin-3-yl)methyl)amino)thieno[3,2-d]pyrimidin-4-yl)(3-hydroxyazetidin-1-yl)methanone], the 50% inhibitory concentration (IC50) is over 500 nM in [9], over 500 nM in data set [2], over 500 nM in [10] and under 10 nM in data set [6]. The inhibition at 10 µM in [1] stood at 28.4%. In addition, the Ratio in [6] stood at 68.08. The hepatocyte CLint in data set [7] is 4.11 µL/min/1e6 cells; in data set [8], 19.9 µL/min/1e6 cells.
Regarding `CCNC(=O)c1nc(N[C@@H](C)c2ccccn2)nc2ccsc12` [Example Z111, (S)—N-Ethyl-2-((1-(pyridin-2-yl)ethyl)amino)thieno[3,2-d]pyrimidine-4-carboxamide], the 50% inhibitory concentration (IC50) in data set [9] was over 500 nM; in [2], 50 to 100 nM; in [10], over 500 nM; in data set [6], under 10 nM. The inhibition at 10 µM in data set [1] amounted to 19.9%. Further, the Ratio in data set [6] worked out at 15.70. Besides, the hepatocyte CLint in data set [7] is 8.64 µL/min/1e6 cells; in data set [8], 45.4 µL/min/1e6 cells.
For `COC1CN(C(=O)c2nc(NCc3cncc(F)c3)nc3ccsc23)C1` [Example Z115, (2-(((5-Fluoropyridin-3-yl)methyl)amino)thieno[3,2-d]pyrimidin-4-yl)(3-methoxyazetidin-1-yl)methanone], the IC50 in data set [9] was over 500 nM; in data set [2], 100 to 500 nM; in [10], over 500 nM; in data set [6], under 10 nM. Further, the inhibition at 10 µM in [1] was found to be 75%. Besides, the Ratio in data set [6] is given as 71.92. Also, the values for the hepatocyte CLint in data set [7] and in [8] were 13.9 µL/min/1e6 cells and 51.7 µL/min/1e6 cells, respectively.
With `O=C(NCCO)c1nc(NCc2cncc(F)c2)nc2ccsc12` [Example Z123, 2-(((5-Fluoropyridin-3-yl)methyl)amino)-N-(2-hydroxyethyl)thieno[3,2-d]pyrimidine-4-carboxamide], the half-maximal inhibitory concentration (IC50) in [9] was over 500 nM; in data set [2] it was over 500 nM; in data set [10] it was over 500 nM; in [6], 10 to 50 nM. Further, the inhibition at 10 µM in [1] turned out to be 76.5%. Besides, the Ratio in data set [6] was 42.97. The results for the intrinsic metabolic clearance (hepatocyte CLint) in [7] and in [8] were 5.54 µL/min/1e6 cells and 22 µL/min/1e6 cells, respectively.
As for `C[C@H](Nc1nc(C(=O)N2CCCC2)c2sccc2n1)c1cccc(F)c1` [Example Z125, (S)-(2-((1-(3-Fluorophenyl)ethyl)amino)thieno[3,2-d]pyrimidin-4-yl)(pyrrolidin-1-yl)methanone], the IC50 is over 500 nM in data set [9], 100 to 500 nM in data set [2], over 500 nM in [10] and under 10 nM in data set [6]. The inhibition at 10 µM in data set [1] is -50.9%. In data set [6], the Ratio is on record as 15.42. For the same compound, the hepatocyte CLint in data set [7] came to 42.8 µL/min/1e6 cells; in [8], 144 µL/min/1e6 cells.
With `C[C@H](Nc1nc(C(=O)N2CCCC2)c2sccc2n1)c1cncc(F)c1` [Example Z134, (S)-(2-((1-(5-Fluoropyridin-3-yl)ethyl)amino)thieno[3,2-d]pyrimidin-4-yl)(pyrrolidin-1-yl)methanone], the IC50 in data set [9] is over 500 nM; in data set [2] it was 100 to 500 nM; in [10], over 500 nM; in data set [6], under 10 nM. For the same compound, in [1], the inhibition at 10 µM came out at 62.7%. For the same compound, the Ratio in data set [6] stood at 72.09. Moreover, the hepatocyte CLint in [7] amounted to 17.9 µL/min/1e6 cells; in [8], 72.9 µL/min/1e6 cells.

Values taken from US11254686B1 (Corvus Pharmaceuticals, Inc., priority 2017, dated 2022).
